From patent US20230416261A1, “ETHANEDIAMINE-HETEROCYCLE DERIVATIVES AS INHIBITORS OF PROTEIN ARGININE METHYLTRANSFERASES” (Board of Regents, The University of Texas System, priority 2021, published 2023)

What was measured:
PATC53 cells = assay: PATC53 Long Term Phenotypic Assay (14 days, crystal violet viability); format: cell-based; conditions: 336 h
How it was run: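 Cells seeded at 250 per well, allowed 24 h to settle, then treated with 1:3 serial dilutions of compound for 14 days at 37 °C, 5% CO2. Viability measured by crystal violet staining, solubilised in 10% HOAc, absorbance 590 nm; IC50 from four-parameter logistic fit.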

DOHH2 cells = assay: DOHH2 Long Term Phenotypic Assay (7 days, Cell Titer-Glo viability); format: cell-based; conditions: Homo sapiens, DOHH-2, 168 h, Cell Titer-Glo 2.0
How it was run: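 DOHH2 lymphoma cells (250 per well) in RPMI-1640 with 10% FBS were exposed to 1:3 serially diluted compounds for 7 days at 37 °C, 5% CO2. Viability was read by CellTiter-Glo 2.0 luminescence, and IC50 values came from four-parameter logistic fits.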

[1] = test system: PANC-1 (pancreatic ductal adenocarcinoma) xenograft; assay: Anti-tumor effects in PANC-1 mouse xenograft model; format: in vivo; conditions: BID, 28 days, C.B-17 SCID mice
Protocol: The effect of the compounds of Examples 1 and 2 on tumor growth was assessed in a PANC-1 (pancreatic ductal adenocarcinoma) mouse xenograft model. Female C.B -Igh-I^b/IcrTac-Prkdc^scid (C.B-17 SCID) mice were injected subcutaneously in the right flank with a suspension of […] cells (5 million cells with 50% Matrigel (Corning #356231) in sterile Dulbecco's phosphate buffered saline (DPBS, Life Technologies #14190-144). After implantation, tumor volume (TV) was measured weekly and mice bearing tumors with volumes ˜200 mm^3 were randomized into treatment groups of 8 mice each. Mice were dosed by oral gavage, twice daily for 28 days with either vehicle or 1 and 2 at the doses reported in Table 6 and Table 7 respectively. The doses were scaled to the body weights (BW) of individual animals at a dosing volume of 5 mL/Kg. Throughout the duration of study tumor growth was assessed by caliper measurement and treatment response was determined by percent tumor growth inhibition (% TGI; calculated as TGI %=(Ci−Ti)/(Ci−C0)*100%; Ci and Ti are the mean tumor volumes of the vehicle and treatment groups on the measurement day, respectively; C0 is the mean tumor volume of the vehicle group on day 0 (i.e. the day before treatment started). Mouse body weight was measured bi-weekly and reported as percentage of BW change from day 0 (calculated as Body Weight Change %=(BWi−BW0)/BW0*100%; BWi and BW0 are body weight of an individual mouse on measurement day i and on day 0, respectively). Statistical significance was calculated by repeated-measures two-way ANOVA with multiple comparisons and Tukey correction using GraphPad Prism 8.0.

Row | SMILES | IC50 (PATC53 cells) | IC50 (DOHH2 cells) | Tumor Growth Inhibition % (TGI %; day 28) ([1]; 150 mg/Kg PO) | Tumor Growth Inhibition % (TGI %; day 28) ([1]; 225 mg/Kg PO)
1 | CNCCN(C)Cc1nn2c(c1C1CCC(COC)(COC)CC1)CN(C(=O)C1CCC1)CC2 [Example 1, (3-(4,4-Bis(methoxymethyl)cyclohexyl)-2-((methyl(2-(methylamino)ethyl)amino)methyl)-6,7-dihydropyrazolo[1,5-a]pyrazin-5(4H)-yl)(cyclobutyl)methanone] | 45 nM | 66 nM | 49% | 68%
2 | COCC1(COC)CCC(c2c(CN(C)CCN)nn3c2CN(C(=O)C(C)(C)C)CC3)CC1 [Example 2, 1-(2-(((2-aminoethyl)(methyl)amino)methyl)-3-(4,4-bis(methoxymethyl)cyclohexyl)-6,7-dihydropyrazolo[1,5-a]pyrazin-5(4H)-yl)-2,2-dimethylpropan-1-one] | 152 nM | 158 nM | 48% | 70%
